Measured values reported in patent US7378545B2, “Crystallization of amino acids using ultrasonic agitation” (Abbott Laboratories, priority 2002, dated 2008).

Key:
Format in all cases: physicochemical
[1] = Parametric sensitivity of L-thyroxine crystallization, particle size (one liter glass crystallizer, no ultrasound)
Method: The following trials were conducted to test the effects of various parameters other than ultrasonification on the crystallization of L-thyroxine. These trials were performed in a one liter glass crystallizer equipped with three baffles and a 60 mm marine type propeller (Ne=0.4). While most trials were run with the standard solution given in Example 1, propanol concentration was varied in trials 5 and 6. The final temperature for all trials was 10° C.

[2] = Effect of ultrasonification intensity on crystal size (one-liter flask in ultrasonic bath, ≈40 kHz); details: for C.V. Coefficient of variation = (X86 − X14)/(2 * X50): unit assumed
Method: A one-liter round bottom glass flask was filled with the standard L-thyroxine solution and cooled under stirring. The flask was then immersed in an ultrasonic bath (Sonorex Super Bandelin DK102, ≈40 kHz) to study the influence of different sonification intensities on the size of L-thyroxine crystals. The frequency and power dissipated by the bath was measured using a hydrophone. As an additional parameter, the onset point of sonification and its duration was also varied.

[3] = Nucleation temperature / metastable zone during cooling of L-thyroxine solutions
Excerpt: The extent of the metastable zone depends on the rate of cooling. The lower the cooling rate, the higher the temperature at which nucleation begins.

[4] = Degradation of L-thyroxine in crystallization solution at elevated temperature; details: concentrations above 10% not feasible
Method: Concentrations of L-thyroxine above 10% were not feasible due to degradation at above 65° C.

[5] = Effect of ultrasonification on crystallization, particle size by Aerosizer time-of-flight (2000 W, 20 kHz sonotrode)
Excerpt: L-thyroxine crystals were obtained by batch-wise cooling crystallization of a standard solution of L-thyroxine.
To crystallize L-thyroxine, the standard solution of L-thyroxine was heated to a specified temperature, introduced into a crystallizer and cooled at a controlled rate. As the solution cooled and L-thyroxine crystallized, the solution was exposed to ultrasonification.
A sonotrode complete with generator and transducer capable of emitting an radial ultrasonic pressure wave at a 20 kHz frequency and 2000 W of power (UIP 2000 industrial processor with block sonotrode) was mounted in the crystallizer. The L-thyroxine solution was prepared and agitated at 20 RPM. The temperature was stabilized at 50° C., and the ultrasonic generator was turned on in continuous mode and at 100% amplitude. The cooling sequence was then initiated and the temperature of the solution was lowered at 0.5° C. per minute to a final set point of 10° C. The period of time that the ultrasound was applied to the solution as it was cooling to this set point was varied. For the first trial, a controlled crystallization was allowed to occur without any application of ultrasound to the product solution. For the second trial, the ultrasound remained on until a temperature of 30° C. was reached. At this point the ultrasound was turned off while the solution continued to cool to 10° C. When 10° C. was reached, the slurry was sampled and heated back up to 50° C. to redissolve the solid. The third trial proceeded in the same manner, but when the solution reached a temperature of 26° C., the ultrasound was turned off and the solution continued to cool to 10° C. The trials continued in this manner, changing the temperature at which the ultrasound was turned off by 4° C. each time until for the last trial, the solution was sonified throughout cooling. During this last trial, ultrasound was maintained at the cooling set point for a period of one hour, with samples being pulled at the half hour and one hour mark. This slurry was then transferred to a filter dryer for filtering, washing and drying. Once the product was dry, a sample was taken to determine the additional effects on particle size of the manufacturing process downstream of the crystallizer.
Particle size analysis for all samples was performed with an Aerosizer aerodynamic time-of-flight particle-sizing instrument.
Samples for all of the trials shown in the table above were taken from the crystallizer in the slurry form. A portion of these slurry samples was filtered, washed with ethanol and dried at ambient temperature. A reduction in particle size on a volume basis was apparent between trial 1, which underwent no sonification, and trials 2-7, which underwent various periods of ultrasound application. The magnitude of this reduction is roughly three fold.

[6] = Solubility of L-thyroxine in standard solution (cooling/redissolving, light probe)
Method: The solubility of L-thyroxine was determined by studying a standard solution of L-thyroxine.
The L-thyroxine solution was then transferred to a glass crystallizer and cooled until the L-thyroxine crystallized spontaneously. Then, the temperature of the solution was slowly raised until the crystallized L-thyroxine was redissolved. The crystallization status of the solution was determined using a light probe. The light probe was comprised of two parallel rods with a light source and a photocell. The light probe measured the amount of crystals in the solution by determining the change in the amount of light that was absorbed or scattered by the solution. In solutions with crystals, the photocells registered a weakened beam as compared to beams sent through clear solutions.
Data obtained from these experiments is plotted in FIG. 1. The solubility of L-thyroxine in the standard solution is given by black circles, interpolated by the solid line.
The temperature of saturation at standard conditions (4.84% w/w) was 42° C. […] A theoretical yield of 83% of L-thyroxine was calculated. […] At a concentration of 20% propanol or 4% sodium carbonate, the solubility of L-thyroxine at lower temperatures was not determined. Under these conditions, sodium carbonate co-precipitated with sodium L-thyroxine at around 10° C.

[7] = Effect of ultrasonification intensity on crystal size (22 L crystallizer, 24 kHz sonotrode)
Method: In order to verify the findings from Example 5, additional experiments were carried out in a 22 L double-jacket glass crystallizer equipped with a draft tube and a 200 mm marine type propeller (Ne=0.3). A custom-made sonotrode (24 kHz) was used along with a UIP250 sound generator. In this example, the exact sonification power was not determined, although it was estimated to be in the order of 25-50 W. The findings are illustrated in Table 7.

[8] = trial 3: 10% US switched on at 32.5° C. (1K above expected nucleation temperature)
[9] = trial 5: 50% US switched on at 32.5° C.
[10] = trial 6: 100% US (roughly 0.18 W/cm^2)
[11] = trial 7: 100% US switched on at 32.5° C.
[12] = trial 8: 100% US switched off immediately after nucleation
[13] = trial 1: ultrasound off, cooled 50 to 10° C. at 0.5° C. per minute
[14] = trial 2: ultrasound on at 50° C., off at 30° C.
[15] = trial 3: ultrasound on at 50° C., off at 26° C.
[16] = trial 4: ultrasound on at 50° C., off at 22° C.
[17] = trial 5: ultrasound on at 50° C., off at 18° C.
[18] = trial 6: ultrasound on at 50° C., off at 14° C.
[19] = trial 7: ultrasound on at 50° C., off at 10° C.

Compound: N[C@@H](Cc1cc(I)c(Oc2cc(I)c(O)c(I)c2)c(I)c1)C(=O)O [L-thyroxine]
- Particle size ([1]; trial 1: cooling 20/10 K/h, 0.5 W/kg, dried 10 mbar 50° C.): 15 μm
- Particle size ([1]; trial 1: cooling 20/10 K/h, 0.5 W/kg, dried 1013 mbar 25° C. openly in lab): 30 μm
- Particle size ([1]; trial 2: cooling 20/10 K/h, 5 W/kg (stirrer rate increased 3x), dried 10 mbar 35° C.): 18 μm
- Particle size ([1]; trial 3: cooling 30 K/h, 0.5 W/kg, dried 10 mbar 35° C.): 19 μm
- Particle size ([1]; trial 4: cooling 30 K/h, 5 W/kg, dried 1013 mbar RT): 10 μm
- Particle size ([1]; trial 5: 20% propanol, cooling 30 K/h, 5 W/kg, dried 50 mbar 35° C.): <20 μm
- Particle size ([1]; trial 6: 10% propanol, cooling 30 K/h, 5 W/kg, dried 50 mbar 35° C.): >30 μm
- Particle size ([1]; trial 7: cooling 30 K/h, 0.5 W/kg, dried 1013 mbar RT, rinsed with 90/10 EtOH/water): 16 μm
- Particle size ([1]; trial 8: cooling 30 K/h, 5 W/kg, dried 50 mbar 35° C., rinsed with 90/10 EtOH/water): 11 μm
- Particle size ([1]; trial 9: cooling 30 K/h, 2 W/kg, dried 50 mbar 35° C., rinsed with 90/10 EtOH/water): 13 μm
- Particle size ([1]; trial 10: as above, 1 hour stirring at final temperature): 15 μm
- Particle size ([1]; trial 10: as above, 2 hour stirring at final temperature): 15 μm
- Particle size ([1]; trial 10: cooling 30 K/h, 0.5 W/kg, dried 50 mbar 35° C.): 15 μm
- Average Size ([2]; trial 1: 0% US intensity): 46 μm
- Undercooling ([2]; trial 1: 0% US intensity): 13.6 °C
- C.V. Coefficient of variation = (X86 − X14)/(2 * X50) ([2]; trial 1: 0% US intensity): 74%
- Average Size ([2]; trial 2: 10% US): 13 μm
- Undercooling ([2]; trial 2: 10% US): 12.1 °C
- C.V. Coefficient of variation = (X86 − X14)/(2 * X50) ([2]; trial 2: 10% US): 70%
- Average Size [2, 8]: 11 μm
- Undercooling [2, 8]: 12.8 °C
- C.V. Coefficient of variation = (X86 − X14)/(2 * X50) ([2]; trial 3: 10% US switched on at 32.5° C.): 84%
- Average Size ([2]; trial 4: 50% US): 13 μm
- Undercooling ([2]; trial 4: 50% US): 10.6 °C
- C.V. Coefficient of variation = (X86 − X14)/(2 * X50) ([2]; trial 4: 50% US): 65%
- Average Size [2, 9]: 11 μm
- Undercooling [2, 9]: 12.5 °C
- C.V. Coefficient of variation = (X86 − X14)/(2 * X50) [2, 9]: 69%
- Average Size [2, 10]: 11 μm
- Undercooling [2, 10]: 11.9 °C
- C.V. Coefficient of variation = (X86 − X14)/(2 * X50) ([2]; trial 6: 100% US): 61%
- Average Size [2, 11]: 11 μm
- Undercooling [2, 11]: 12.5 °C
- C.V. Coefficient of variation = (X86 − X14)/(2 * X50) [2, 11]: 62%
- Average Size [2, 12]: 22 μm
- Undercooling [2, 12]: 10.9 °C
- C.V. Coefficient of variation = (X86 − X14)/(2 * X50) [2, 12]: 74%
- metastable zone (range of supercooling) ([3]; aqueous solutions during cooling, depends on rate of cooling): 5-11 °C
- increase in the temperature at which solids appeared ([3]; plant scale, sonified crystallizations, cooling rate 0.5° C. per minute): 9-18 °C
- decrease in the metastable zone ([3]; sonified solution, cooling rate 0.17-0.5° C. per minute): 1-3 °C
- Nucleation Temperature ([3]; trial 1: ultrasound off): 25 °C
- Nucleation Temperature ([3]; trial 2: ultrasound on): 35 °C
- Nucleation Temperature ([3]; trial 3: ultrasound on): 38 °C
- Nucleation Temperature ([3]; trial 4: ultrasound on): 38 °C
- Nucleation Temperature ([3]; trial 5: ultrasound on): 34 °C
- Nucleation Temperature ([3]; trial 6: ultrasound on): 36 °C
- Nucleation Temperature ([3]; trial 7: ultrasound on): 34 °C
- temperature of degradation [4]: above 65 °C
- Mean Particle Size (Number) [5, 13]: 3 µm
- Mean Particle Size Volume [5, 13]: 20.8 µm
- Mean Particle Size (Number) [5, 14]: 2.4 µm
- Mean Particle Size Volume [5, 14]: 6.6 µm
- Mean Particle Size (Number) [5, 15]: 2.3 µm
- Mean Particle Size Volume [5, 15]: 5.4 µm
- Mean Particle Size (Number) [5, 16]: 2.5 µm
- Mean Particle Size Volume [5, 16]: 5.7 µm
- Mean Particle Size (Number) [5, 17]: 2.4 µm
- Mean Particle Size Volume [5, 17]: 5.3 µm
- Mean Particle Size (Number) [5, 18]: 2.4 µm
- Mean Particle Size Volume [5, 18]: 5.2 µm
- Mean Particle Size (Number) [5, 19]: 3.1 µm
- Mean Particle Size Volume [5, 19]: 6.1 µm
- reduction in particle size on a volume basis ([5]; trials 2-7 (ultrasound) versus trial 1 (no sonification)): roughly three fold
- effect of solution composition on solubility ([6]; higher sodium carbonate or propanol concentrations): the inverse effect is observed
- effect of solution composition on solubility ([6]; reduction of sodium carbonate or propanol content of the initial solution): reduces L-thyroxine solubility
- temperature of saturation ([6]; standard solution, 4.84% w/w L-thyroxine, 14.0% n-propanol, 2.85% sodium carbonate): 42 °C
- solubility ([6]; standard solution, end of the cooling curve, 10° C.): 0.78%
- reduction of particle size ([7]; smallest ultrasound intensity versus no ultrasound): 50%
- Crystal size ([7]; trial 1: No Ultrasound): 28 μm
- Crystal size ([7]; trial 2: 10% Ultrasound): 15 μm
- Crystal size ([7]; trial 3: 100% Ultrasound): 14 μm

Compound: N[C@@H](Cc1cc(I)c(Oc2cc(I)c(O)c(I)c2)c(I)c1)C(=O)O.[Na] [sodium L-thyroxine]
- point of nucleation of the aqueous solution ([3]; in the absence of ultrasound): approximately 32 °C
